Legend:
Test in all cases: fitness (endpoint OD595 vs no drug) (fraction); higher = more growth
[1] = system: B. subtilis 168
In short: (§1)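 With the first reading as background, OD595 was measured every 30 min for 14 h in 384-well plates kept at 37 °C and inoculated at OD595 0.01. TSB, LB Lennox or CY was the medium. Fitness is the optical density at the transition into stationary phase divided by the robust mean of no-drug control wells, with a cap of 1.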

[2] = system: S. aureus Newman
In short: as §1

[3] = system: S. pneumoniae D39V
In short: as §1
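Also: OD595 on entry to stationary phase over no-drug wells; at most 1.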

CC[C@H]1OC(=O)[C@H](C)[C@@H](O[C@H]2C[C@@](C)(OC)[C@@H](O)[C@H](C)O2)[C@H](C)[C@@H](O[C@@H]2O[C@H](C)C[C@H](N(C)C)[C@H]2O)[C@](C)(O)C[C@@H](C)CN(C)[C@H](C)[C@@H](O)[C@]1(C)O [Azithromycin] + O=C(O)[C@H]1/C(=C/CO)O[C@@H]2CC(=O)N21 [Clavulanic acid]
fitness, [1]
Conditions | partner 1.5 µg/mL | partner 3 µg/mL | partner 6 µg/mL
first compound 0.25 µg/mL | 0.939 | 0.911 | 0.793
first compound 0.5 µg/mL | 0.805 | 0.788 | 0.727

fitness, one replicate
Conditions | partner 0.03125 µg/mL | partner 0.0625 µg/mL | partner 0.125 µg/mL | partner 1.5 µg/mL | partner 3 µg/mL | partner 6 µg/mL
[1], first compound 2 µg/mL | – | – | – | 0.0793 | 0.054 | 0.0121
[2], first compound 0.125 µg/mL | 0.962 | 0.973 | 0.92 | – | – | –
[2], first compound 0.25 µg/mL | 0.902 | 0.998 | 0.893 | – | – | –
[2], first compound 0.5 µg/mL | 0.811 | 0.799 | 0.834 | – | – | –

CC1=C(C(=O)O)N2C(=O)[C@@H](NC(=O)[C@H](N)c3ccccc3)[C@H]2SC1 [Cephalexin] + CO[C@@]12[C@H](COC(N)=O)C3=C(C(=O)C(C)=C(N)C3=O)N1C[C@@H]1N[C@@H]12 [Mitomycin C]
fitness
Conditions | first compound 0.25 µg/mL | first compound 0.5 µg/mL | first compound 1 µg/mL | first compound 2 µg/mL | first compound 4 µg/mL
[2], partner 0.0156 µg/mL | 0.804 | 0.761 | 0.891 | – | –
[2], partner 0.0312 µg/mL | 0.732 | 0.724 | 0.705 | – | –
[2], partner 0.0625 µg/mL | 0.614 | 0.577 | 0.655 | – | –
[3], partner 0.001075 µg/mL | – | – | 0.662 | 0.188 | 0.0487
[3], partner 0.00215 µg/mL | – | – | 0.639 | 0.146 | 0.0215
[3], partner 0.0043 µg/mL | – | – | 0.604 | 0.173 | 0.05

fitness, [3], one replicate
Conditions | first compound 0.125 µg/mL | first compound 0.25 µg/mL | first compound 0.5 µg/mL
partner 0.002 µg/mL | 0.806 | 0.757 | 0.732
partner 0.004 µg/mL | 0.761 | 0.723 | 0.686
partner 0.008 µg/mL | 0.607 | 0.615 | 0.608

O=C(O)[C@H]1/C(=C/CO)O[C@@H]2CC(=O)N21 [Clavulanic acid] + CC1=C(C(=O)O)N2C(=O)[C@@H](NC(=O)[C@H](N)c3ccccc3)[C@H]2SC1 [Cephalexin]
Conditions | fitness
[1], first compound 1.5 µg/mL, partner 0.125 µg/mL | 0.904
[1], first compound 1.5 µg/mL, partner 0.25 µg/mL | 0.927
[1], first compound 1.5 µg/mL, partner 0.5 µg/mL | 0.889
[1], first compound 3 µg/mL, partner 0.125 µg/mL | 0.878
[1], first compound 3 µg/mL, partner 0.25 µg/mL | 0.818
[1], first compound 3 µg/mL, partner 0.5 µg/mL | 0.793
[1], first compound 6 µg/mL, partner 0.125 µg/mL | 0.772
[1], first compound 6 µg/mL, partner 0.25 µg/mL | 0.76
[1], first compound 6 µg/mL, partner 0.5 µg/mL | 0.723
[3], first compound 0.5 µg/mL, partner 2 µg/mL | 0.0193
[3], first compound 0.5 µg/mL, partner 4 µg/mL | 0.0187
[3], first compound 1 µg/mL, partner 2 µg/mL | 0.171
[3], first compound 1 µg/mL, partner 4 µg/mL | 0.203
[3], first compound 2 µg/mL, partner 1 µg/mL | 0.104
[3], first compound 2 µg/mL, partner 2 µg/mL | 0.0309
[3], first compound 2 µg/mL, partner 4 µg/mL | 0.045

one replicate
Conditions | fitness
[1], first compound 1.5 µg/mL, partner 1 µg/mL | 0.929
[1], first compound 3 µg/mL, partner 1 µg/mL | 0.848
[1], first compound 6 µg/mL, partner 1 µg/mL | 0.867
[2], first compound 0.03125 µg/mL, partner 0.5 µg/mL | ≥ 1
[2], first compound 0.03125 µg/mL, partner 1 µg/mL | ≥ 1
[2], first compound 0.03125 µg/mL, partner 2 µg/mL | ≥ 1
[2], first compound 0.0625 µg/mL, partner 0.5 µg/mL | 0.958
[2], first compound 0.0625 µg/mL, partner 1 µg/mL | 0.986
[2], first compound 0.0625 µg/mL, partner 2 µg/mL | ≥ 1
[2], first compound 0.125 µg/mL, partner 0.5 µg/mL | 0.897
[2], first compound 0.125 µg/mL, partner 1 µg/mL | 0.913
[2], first compound 0.125 µg/mL, partner 2 µg/mL | 0.919
[3], first compound 0.5 µg/mL, partner 0.125 µg/mL | 0.945
[3], first compound 0.5 µg/mL, partner 0.25 µg/mL | 0.957
[3], first compound 0.5 µg/mL, partner 0.5 µg/mL | 0.941
[3], first compound 1 µg/mL, partner 0.125 µg/mL | 0.881
[3], first compound 1 µg/mL, partner 0.25 µg/mL | 0.903
[3], first compound 1 µg/mL, partner 0.5 µg/mL | 0.944
[3], first compound 2 µg/mL, partner 0.125 µg/mL | 0.772
[3], first compound 2 µg/mL, partner 0.25 µg/mL | 0.789
[3], first compound 2 µg/mL, partner 0.5 µg/mL | 0.765

O=C(O)[C@H]1/C(=C/CO)O[C@@H]2CC(=O)N21 [Clavulanic acid] + CC1=C\[C@@H](O)CC(=O)Cc2nc(co2)C(=O)N2CCC=C2C(=O)O[C@H](C(C)C)[C@H](C)/C=C/C(=O)NC\C=C\1 [Virginiamycin M1]
fitness
Conditions | first compound 0.5 µg/mL | first compound 1 µg/mL | first compound 1.5 µg/mL | first compound 2 µg/mL | first compound 3 µg/mL | first compound 6 µg/mL
[1], partner 0.0625 µg/mL | – | – | 0.935 | – | 0.877 | 0.809
[1], partner 0.125 µg/mL | – | – | 0.917 | – | 0.895 | 0.7
[1], partner 0.25 µg/mL | – | – | 0.927 | – | 0.841 | 0.822
[3], partner 0.5 µg/mL | 0.991 | 0.935 | – | 0.918 | – | –
[3], partner 1 µg/mL | ≥ 1 | 0.958 | – | 0.867 | – | –
[3], partner 2 µg/mL | 0.957 | 0.904 | – | 0.796 | – | –

fitness, one replicate
Conditions | first compound 0.03125 µg/mL | first compound 0.0625 µg/mL | first compound 0.125 µg/mL | first compound 0.5 µg/mL | first compound 1 µg/mL | first compound 2 µg/mL
[2], partner 0.0625 µg/mL | 0.925 | 0.984 | 0.908 | – | – | –
[2], partner 0.125 µg/mL | 0.917 | 0.977 | 0.949 | – | – | –
[2], partner 0.25 µg/mL | 0.971 | ≥ 1 | 0.975 | – | – | –
[3], partner 0.15 µg/mL | – | – | – | ≥ 1 | 0.929 | 0.868
[3], partner 0.3 µg/mL | – | – | – | 0.875 | 0.87 | 0.802

O=C(O)[C@H]1/C(=C/CO)O[C@@H]2CC(=O)N21 [Clavulanic acid] + CC(C1CCC(C(O1)OC2C(CC(C(C2O)OC3C(C(C(CO3)(C)O)NC)O)N)N)N)NC [Gentamicin]
main component drawn
Conditions | fitness
[1], first compound 1.5 µg/mL, partner 0.0625 µg/mL | 0.884
[1], first compound 3 µg/mL, partner 0.0625 µg/mL | 0.859
[1], first compound 6 µg/mL, partner 0.0625 µg/mL | 0.737
[1], first compound 6 µg/mL, partner 0.25 µg/mL | 0.118
[3], first compound 0.5 µg/mL, partner 2 µg/mL | 0.96
[3], first compound 0.5 µg/mL, partner 4 µg/mL | 0.955
[3], first compound 0.5 µg/mL, partner 8 µg/mL | 0.932
[3], first compound 1 µg/mL, partner 2 µg/mL | 0.902
[3], first compound 1 µg/mL, partner 4 µg/mL | 0.896
[3], first compound 1 µg/mL, partner 8 µg/mL | 0.885
[3], first compound 2 µg/mL, partner 2 µg/mL | 0.795
[3], first compound 2 µg/mL, partner 4 µg/mL | 0.8
[3], first compound 2 µg/mL, partner 8 µg/mL | 0.787

fitness, [2], one replicate, main component drawn
Conditions | first compound 0.03125 µg/mL | first compound 0.0625 µg/mL | first compound 0.125 µg/mL
partner 1 µg/mL | 0.92 | 0.947 | 0.872
partner 2 µg/mL | ≥ 1 | 0.893 | 0.835
partner 4 µg/mL | 0.768 | 0.566 | 0.388

O=C(O)[C@H]1/C(=C/CO)O[C@@H]2CC(=O)N21 [Clavulanic acid] + CCC[C@@H]1C[C@@H](C(=O)N[C@@H]([C@H]2O[C@H](SC)[C@H](O)[C@@H](O)[C@H]2O)[C@H](C)Cl)N(C)C1 [Clindamycin]
fitness, one replicate
Conditions | first compound 0.03125 µg/mL | first compound 0.0625 µg/mL | first compound 0.125 µg/mL | first compound 1.5 µg/mL | first compound 3 µg/mL | first compound 6 µg/mL
[1], partner 0.0039 µg/mL | – | – | – | 0.957 | 0.974 | 0.931
[1], partner 0.0078 µg/mL | – | – | – | 0.842 | 0.826 | 0.791
[1], partner 0.0156 µg/mL | – | – | – | 0.836 | 0.763 | 0.739
[2], partner 0.0312 µg/mL | 0.863 | 0.889 | 0.785 | – | – | –
[2], partner 0.0625 µg/mL | 0.544 | 0.518 | 0.402 | – | – | –
[2], partner 0.125 µg/mL | 0.38 | 0.375 | 0.282 | – | – | –

fitness
Conditions | partner 0.0125 µg/mL | partner 0.015 µg/mL | partner 0.025 µg/mL | partner 0.03 µg/mL | partner 0.05 µg/mL | partner 0.06 µg/mL | partner 0.0625 µg/mL | partner 0.125 µg/mL | partner 0.25 µg/mL
[1], first compound 1.5 µg/mL | – | – | – | – | – | – | 0.609 | 0.322 | 0.308
[1], first compound 3 µg/mL | – | – | – | – | – | – | 0.404 | 0.313 | 0.26
[1], first compound 6 µg/mL | – | – | – | – | – | – | 0.398 | 0.24 | 0.217
[3], first compound 0.5 µg/mL | 0.779 | 0.789 | 0.511 | 0.516 | 0.134 | 0.305 | – | – | –
[3], first compound 1 µg/mL | 0.749 | 0.78 | 0.485 | 0.567 | 0.116 | 0.417 | – | – | –
[3], first compound 2 µg/mL | 0.683 | 0.566 | 0.407 | 0.399 | 0.101 | 0.245 | – | – | –

Source: the supplement of paper PMC10627819
